Assay results reported in patent US11040981B2, “Pyrrolotriazine compounds and methods of inhibiting TAM kinases” (Syros Pharmaceuticals, Inc., priority 2017, dated 2021).

Assays:
FLT3 = target: T1, FLT3 (Homo sapiens, UniProt P36888); experiment: TR-FRET kinase activity assay, FLT3; assay type: biochemical; conditions: ATP at Km, 60 minutes
T1 sequence (P36888 27-993): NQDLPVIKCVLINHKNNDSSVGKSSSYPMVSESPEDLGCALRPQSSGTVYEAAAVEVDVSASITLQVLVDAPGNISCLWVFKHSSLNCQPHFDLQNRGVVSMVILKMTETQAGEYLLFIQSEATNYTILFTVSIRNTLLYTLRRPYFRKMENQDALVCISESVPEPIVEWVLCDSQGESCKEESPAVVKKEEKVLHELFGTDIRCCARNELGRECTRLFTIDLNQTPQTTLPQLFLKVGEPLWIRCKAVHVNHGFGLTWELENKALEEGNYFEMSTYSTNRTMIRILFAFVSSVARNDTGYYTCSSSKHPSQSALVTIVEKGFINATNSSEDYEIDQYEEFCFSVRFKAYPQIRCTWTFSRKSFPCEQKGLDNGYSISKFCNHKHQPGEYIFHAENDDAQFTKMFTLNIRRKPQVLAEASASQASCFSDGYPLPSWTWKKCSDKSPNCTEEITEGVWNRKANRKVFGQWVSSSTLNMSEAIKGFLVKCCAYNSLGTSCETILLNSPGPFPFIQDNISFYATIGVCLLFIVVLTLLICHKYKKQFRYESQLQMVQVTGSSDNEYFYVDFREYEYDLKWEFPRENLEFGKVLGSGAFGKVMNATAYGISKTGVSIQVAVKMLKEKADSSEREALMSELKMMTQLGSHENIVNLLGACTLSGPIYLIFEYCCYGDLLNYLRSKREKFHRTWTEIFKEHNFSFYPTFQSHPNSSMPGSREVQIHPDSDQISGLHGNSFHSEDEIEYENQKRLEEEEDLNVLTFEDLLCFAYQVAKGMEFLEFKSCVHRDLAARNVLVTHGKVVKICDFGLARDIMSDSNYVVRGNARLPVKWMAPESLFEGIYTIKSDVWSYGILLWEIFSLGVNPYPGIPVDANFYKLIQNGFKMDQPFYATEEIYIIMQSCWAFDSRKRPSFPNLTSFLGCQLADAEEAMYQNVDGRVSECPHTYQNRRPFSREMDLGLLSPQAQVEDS
Procedure, shortened: (§1)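 Enzyme, fluorescent peptide substrate and compound were mixed, and the reaction was started with ATP at each kinase's Km, in 50 mM HEPES pH 7.5, 10 mM MgCl2, 1 mM EGTA, 0.01% Brij 35, 1 mM DTT at RT. After 60 minutes EDTA quench, Eu-labelled phospho-specific antibody was added for 30 minutes, and IC50 was derived from TR-FRET signal loss.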

MERTK = target: T2, MERTK (Homo sapiens, UniProt Q12866); experiment: TR-FRET kinase activity assay, MERTK; assay type: biochemical; conditions: for IC50: TR-FRET activity assay, ATP at Km, 60 minutes, read-out: Mer IC50; for FLT3/Mer ratio (FLT3 IC50/Mer IC50): ratio calculated as FLT3 IC50/Mer IC50
T2 sequence (Q12866 21-999): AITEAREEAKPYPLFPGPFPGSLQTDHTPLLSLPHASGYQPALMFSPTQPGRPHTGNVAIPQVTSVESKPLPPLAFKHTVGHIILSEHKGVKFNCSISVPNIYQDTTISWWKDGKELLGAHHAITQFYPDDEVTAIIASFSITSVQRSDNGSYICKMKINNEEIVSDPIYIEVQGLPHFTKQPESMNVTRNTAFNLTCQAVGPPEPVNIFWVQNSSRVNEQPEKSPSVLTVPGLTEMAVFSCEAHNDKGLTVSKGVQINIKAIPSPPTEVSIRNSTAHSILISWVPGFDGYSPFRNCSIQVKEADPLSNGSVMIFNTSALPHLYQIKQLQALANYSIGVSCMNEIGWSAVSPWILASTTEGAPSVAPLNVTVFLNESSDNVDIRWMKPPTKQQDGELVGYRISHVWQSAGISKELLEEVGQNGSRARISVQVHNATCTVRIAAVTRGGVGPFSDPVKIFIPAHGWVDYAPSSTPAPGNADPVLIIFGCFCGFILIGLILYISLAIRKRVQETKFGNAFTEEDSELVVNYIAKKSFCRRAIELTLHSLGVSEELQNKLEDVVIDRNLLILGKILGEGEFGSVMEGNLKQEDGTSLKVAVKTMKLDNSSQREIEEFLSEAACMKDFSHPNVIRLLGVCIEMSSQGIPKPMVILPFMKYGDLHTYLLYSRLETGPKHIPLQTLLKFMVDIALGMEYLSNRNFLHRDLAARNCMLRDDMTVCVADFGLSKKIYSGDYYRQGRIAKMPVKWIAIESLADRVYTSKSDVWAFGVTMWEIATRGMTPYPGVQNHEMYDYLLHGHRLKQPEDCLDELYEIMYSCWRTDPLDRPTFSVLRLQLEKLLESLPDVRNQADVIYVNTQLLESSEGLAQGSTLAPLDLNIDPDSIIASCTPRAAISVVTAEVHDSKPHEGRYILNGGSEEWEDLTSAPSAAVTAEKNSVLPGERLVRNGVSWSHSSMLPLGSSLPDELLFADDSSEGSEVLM
Procedure, shortened: as §1

Compound | IC50 (FLT3) [nM] | IC50 (MERTK) [nM] | FLT3/Mer ratio (FLT3 IC50/Mer IC50) (MERTK)
C[C@@H](COC(F)F)Nc1ncc2c(-c3ccnc(N4CCO[C@@H](C(C)(C)O)C4)c3)cc([C@H]3CC[C@H](O)CC3)n2n1 [Compound 597] | 100 to 1000 | ≤ 100 | +++ (“+++” represents a ratio of >100)
C[C@@H](COC(F)F)Nc1ncc2c(-c3ccnc(N4CCOC(C(C)(C)O)C4)c3)cc([C@H]3CC[C@H](O)CC3)n2n1 (stereo partly drawn) [Compound 598] | 100 to 1000 | ≤ 100 | +++ (“+++” represents a ratio of >100)
COC[C@H](C)Nc1ncc2c(-c3cnn(C(C)(C)c4nnc(C(F)F)o4)c3)cc([C@H]3CC[C@H](O)CC3)n2n1 [Compound 599] | 1000 to 10000 | ≤ 100 | +++ (“+++” represents a ratio of >100)
COC[C@H](C)Nc1ncc2c(-c3cnn(C(C)(C)c4nnc(C(C)C)o4)c3)cc([C@H]3CC[C@H](O)CC3)n2n1 [Compound 600] | 1000 to 10000 | ≤ 100 | +++ (“+++” represents a ratio of >100)
COC[C@H](C)Nc1ncc2c(-c3cnn(C(C)(C)c4nnc([C@@H]5CCCO5)o4)c3)cc([C@H]3CC[C@H](O)CC3)n2n1 [Compound 601] | 1000 to 10000 | ≤ 100 | +++ (“+++” represents a ratio of >100)
COC[C@H](C)Nc1ncc2c(-c3cnn(C(C)(C)c4nnc([C@H]5CCCO5)o4)c3)cc([C@H]3CC[C@H](O)CC3)n2n1 [Compound 602] | 1000 to 10000 | ≤ 100 | +++ (“+++” represents a ratio of >100)
COC[C@H](C)Nc1ncc2c(-c3cnn(C(C)(C)c4nnc(C(F)(F)F)o4)c3)cc([C@H]3CC[C@H](O)CC3)n2n1 [Compound 603] | 1000 to 10000 | ≤ 100 | +++ (“+++” represents a ratio of >100)
COC[C@H](C)Nc1ncc2c(-c3cnn(C(C)(C)c4nnco4)c3)cc([C@H]3CC[C@H](O)CC3)n2n1 [Compound 604] | 1000 to 10000 | ≤ 100 | +++ (“+++” represents a ratio of >100)
COC[C@H](C)Nc1ncc2c(-c3ccnc(N4CCC(C)(O)CC4)c3)cc([C@H]3CC[C@H](O)CC3)n2n1 [Compound 605] | 100 to 1000 | ≤ 100 | +++ (“+++” represents a ratio of >100)
COC[C@H](C)Nc1ncc2c([C@H]3CC[C@H](C(=O)N4CCN(C)CC4)CC3)cc([C@H]3CC[C@H](O)CC3)n2n1 [Compound 606] | 1000 to 10000 | ≤ 100 | +++ (“+++” represents a ratio of >100)
COC[C@H](C)Nc1ncc2c([C@H]3CC[C@@H](C(=O)N4CCN(C)CC4)CC3)cc([C@H]3CC[C@H](O)CC3)n2n1 [Compound 607] | 1000 to 10000 | ≤ 100 | +++ (“+++” represents a ratio of >100)
C[C@@H](CC(F)(F)F)Nc1ncc2c(-c3cnn(C(C)(C)C(=O)N4CC5(COC5)C4)c3)cc([C@H]3CC[C@H](O)CC3)n2n1 [Compound 608] | ≤ 100 | ≤ 100 | ++ (“++” represents a ratio of between 10 and 100)
C[C@@H](CC(F)(F)F)Nc1ncc2c(-c3cnn(C(C)(C)C(=O)C4COC4)c3)cc([C@H]3CC[C@@](C)(O)CC3)n2n1 [Compound 609] | ≤ 100 | ≤ 100 | ++ (“++” represents a ratio of between 10 and 100)
C[C@@H](CC(F)(F)F)Nc1ncc2c(-c3cnn(C(C)(C)C(=O)C4COC4)c3)cc([C@H]3CC[C@](C)(O)CC3)n2n1 [Compound 610] | ≤ 100 | ≤ 100 | ++ (“++” represents a ratio of between 10 and 100)
COCC(C)Nc1ncc2c(-c3ccc(C(C)(C)c4nnc(C)o4)s3)cc(C3CCC(O)CC3)n2n1 (stereo not drawn) [Compound 611] | 100 to 1000 | ≤ 100 | +++ (“+++” represents a ratio of >100)
COC[C@H](C)Nc1ncc2c(-c3cnn(C(C)(C)C(=O)N4CCCC4)c3)cc([C@H]3CC[C@H](O)CC3)n2n1 [Compound 612] | 100 to 1000 | ≤ 100 | +++ (“+++” represents a ratio of >100)
C[C@@H](COC(F)F)Nc1ncc2c(-c3cnn(C(C)(C)C(=O)N4CC5(COC5)C4)c3)cc([C@H]3CC[C@H](O)CC3)n2n1 [Compound 613] | ≤ 100 | ≤ 100 | +++ (“+++” represents a ratio of >100)
COC[C@H](C)Nc1ncc2c(-c3cnn(C4COC4)c3)cc([C@H]3CC[C@H](O)C(F)(F)C3)n2n1 [Compound 614] | 100 to 1000 | ≤ 100 | +++ (“+++” represents a ratio of >100)
CCC1(O)CCC(c2cc(-c3cnn(C4COC4)c3)c3cnc(NC(C)COC)nn23)CC1 (stereo not drawn) [Compound 615] | 100 to 1000 | ≤ 100 | +++ (“+++” represents a ratio of >100)
CC[C@]1(O)CC[C@@H](c2cc(-c3cnn(C4COC4)c3)c3cnc(N[C@@H](C)COC)nn32)CC1 [Compound 616] | 100 to 1000 | ≤ 100 | +++ (“+++” represents a ratio of >100)
COC[C@H](C)Nc1ncc2c(-c3cnn(C4COC4)c3)cc([C@H]3CC[C@](O)(C(C)C)CC3)n2n1 [Compound 617] | 100 to 1000 | ≤ 100 | +++ (“+++” represents a ratio of >100)
COC[C@H](C)Nc1ncc2c(-c3cnn(C4COC4)c3)cc([C@H]3CC[C@@](O)(C(C)C)CC3)n2n1 [Compound 618] | 100 to 1000 | ≤ 100 | +++ (“+++” represents a ratio of >100)
COC[C@H](C)Nc1ncc2c(-c3ccnc(C(C)(C)O)c3)cc([C@H]3CC[C@H](O)CC3)n2n1 [Compound 619] | 100 to 1000 | ≤ 100 | +++ (“+++” represents a ratio of >100)
